# Data taken from BindingDB's records for patent WO2025045746 (695 Avenue de la Résistance, 2025).
# Biological target: T1, NAD(+) hydrolase SARM1 [28-724] (UniProt Q6SZW1)
# T1 construct: 28-724
# T1 sequence (Q6SZW1 whole entry): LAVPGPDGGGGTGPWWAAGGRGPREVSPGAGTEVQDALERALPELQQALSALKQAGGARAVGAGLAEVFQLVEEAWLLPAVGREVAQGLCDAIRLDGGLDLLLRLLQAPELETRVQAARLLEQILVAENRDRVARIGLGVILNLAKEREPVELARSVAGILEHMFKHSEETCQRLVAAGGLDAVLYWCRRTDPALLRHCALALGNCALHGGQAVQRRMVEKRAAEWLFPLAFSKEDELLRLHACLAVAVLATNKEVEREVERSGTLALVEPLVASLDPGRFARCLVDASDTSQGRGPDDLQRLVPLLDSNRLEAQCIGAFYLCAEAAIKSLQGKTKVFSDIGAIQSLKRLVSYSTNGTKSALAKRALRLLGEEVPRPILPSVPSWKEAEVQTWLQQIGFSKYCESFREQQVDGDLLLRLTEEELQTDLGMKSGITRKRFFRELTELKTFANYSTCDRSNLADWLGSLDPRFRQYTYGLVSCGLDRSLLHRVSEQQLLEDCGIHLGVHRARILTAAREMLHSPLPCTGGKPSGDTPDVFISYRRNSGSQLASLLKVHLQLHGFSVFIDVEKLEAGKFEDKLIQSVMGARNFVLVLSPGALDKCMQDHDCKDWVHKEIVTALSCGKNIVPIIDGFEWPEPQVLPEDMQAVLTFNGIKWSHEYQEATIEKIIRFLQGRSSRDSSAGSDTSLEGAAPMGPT
# Assay: SARM1 Inhibitory Activity
# Experimental: Assay reagents were prepared in 25mM HEPES pH 7.2, 50mM NaCl, 1mM EDTA and 0.0025% Tween20. […] The peak area of NAD and linear ADPR were measured by a RapidFire High Throughput Mass Spectrometry System (Agilent Technologies, Santa Clara, CA) using an API5000 triple quadrupole mass spectrometer (AB Sciex Framingham, MA). The ratio of linear ADPR to NAD peak area was then plotted against compound concentration to obtain an IC50 as fitted via non-linear regression.
row,Structure (SMILES),IC50 [nM]
1,"O=C(c1[nH]nc(-c2ccnnc2)c1C1CC1)N1CCC(c2ccc(Cl)cc2)C1 (stereo unspecified) [WO2025045746, Example 66]",3020
2,"O=C(c1cc(-c2ccnnc2)n[nH]1)N1CC[C@@H](c2cc(Cl)cs2)C1 [WO2025045746, Example 69]",749
3,"N#C[C@@H]1CN(C(=O)c2cc(-c3ccnnc3)n[nH]2)C[C@H]1c1ccc(Cl)cc1 [WO2025045746, Example 72]",563
4,"O=C(c1cc(-c2ccnnc2)n[nH]1)N1C[C@@H](F)[C@H](c2ccc(Cl)cc2)C1 [WO2025045746, Example 75]",506
5,"O=C(c1cc(-c2ccnnc2)n[nH]1)N1C[C@H](c2ccc(Cl)cc2)[C@@H](F)C1 [WO2025045746, Example 76]",4500
6,"COc1cnccc1-c1cc(C(=O)N2CCC(c3ccc(Cl)cc3)C2)[nH]n1 (stereo unspecified) [WO2025045746, Example 79]",3050

# Now those with a lower IC50, led by results:
row,IC50 [nM],Structure (SMILES)
1,51,"C[C@@H]1CN(C(=O)c2cc(-c3ccnnc3)n[nH]2)C[C@H]1c1ccc(Cl)cc1 [WO2025045746, Example 65]"
2,217,"C[C@H](O)[C@@H]1CN(C(=O)c2cc(-c3ccnnc3)n[nH]2)C[C@H]1c1ccc(Cl)cc1 [WO2025045746, Example 67]"
3,196,"C[C@@H](O)[C@@H]1CN(C(=O)c2cc(-c3ccnnc3)n[nH]2)C[C@H]1c1ccc(Cl)cc1 [WO2025045746, Example 68]"
4,214,"O=C(c1cc(-c2ccnnc2)n[nH]1)N1CC[C@H](c2cc(Cl)cs2)C1 [WO2025045746, Example 70]"
5,30,"N#C[C@H]1CN(C(=O)c2cc(-c3ccnnc3)n[nH]2)C[C@@H]1c1ccc(Cl)cc1 [WO2025045746, Example 73]"
